Measured values taken from US9181172B2, “Rhein conjugates, preparation method thereof and their uses in producing medicines for treating diabetic nephrosis, intestinal adhesion and osteoarthritis” (priority 2005, dated 2015).

Columns and labels:
Format in all cases: in vivo
[1] = test system: obese hyperglycemia mice; assay: Body weight and blood glucose of obese hyperglycemia mice
Procedure: 9-week-old obese mice of hyperglycemia were randomly divided into: rhein sodium group, non-treatment group, rosiglitazone group, rhein lysine high-dose group and low-dose group, each group has 6 mice. Kunming mice of the same age were used as the control group, which were fed by conventional feedstuff with free food and water feeding. Rhein lysine conjugates [the dose is 180 mg/kg (0.418 mmol/kg) and 90 mg/kg (0.209 mmol/kg) for intragastric infusion, prepared with distilled water], dose of the rhein sodium group is 130 mg/kg (0.424 mmol/kg), the mixture was dissolved with distilled water, intragastric administration; rosiglitazone group (the dose is 4 mg/kg), the mixture was dissolved with distilled water, intragastric administration, and the rats of the other two groups were administered with the same volume of distilled water, once a day, 12 weeks of administration in succession. The animals' body weight and blood sugar were measured regularly, and statistical analysis was conducted.

[2] = test system: obese rats of high-fat and high-sugar diet; assay: Body weight of obese rats of high-fat and high-sugar diet
Text: Group A: conventional diet, 4 weeks later, started to carry on intragastric administration, and the same volume of distilled water as the control, once daily, three weeks in succession.
Group B: high-fat high-sugar diet, 4 weeks later, started to carry on intragastric administration, and the same volume of distilled water as the model control, once daily, three weeks in succession.
Group C: high-fat high-sugar diet, 4 weeks later, started to carry on intragastric administration of rhein lysine conjugates [dose: 90 mg/kg (0.209 mmol/kg), prepared by distilled water], once daily, three weeks in succession.
Group D: high-fat high-sugar diet, 4 weeks later, started to carry on intragastric administration of rhein lysine conjugates [dose: 45 mg/kg (0.105 mmol/kg), prepared by distilled water], once daily, three weeks in succession.
Group E: high-fat high-sugar diet, 4 weeks later, started to carry on intragastric administration of rhein sodium [dose: 65 mg/kg (0.212 mmol/kg), prepared by distilled water], once daily, three weeks in succession.

[3] = test system: diabetic rats; assay: Diabetic nephrosis of obese diabetic rats (high-fat high-sugar diet plus STZ); conditions: for Urine protein / Kidney weight index (double kidney weight/body weight × 10^4) / Serum total cholesterol / Serum triacylglycerol / Steady blood sugar level / Steady insulin level / Weight / blood sugar: six months, ig 90 mg/kg
Procedure: Animal model of diabetic rats: after one month of high-fat high-sugar diet, the rats (about 180 g) were injected by sub-pathogenic dose (25 mg/kg) of streptozotocin (STZ) to induce the occurrence of diabetes. The model has the characteristics of moderate hyperglycemia, hyperlipidemia and insulin resistance as well as pathological changes of typical diabetic nephrosis.
• 1. Conventional feedstuff control group: distilled water. • 2. Diabetes model group: distilled water. • 3. Rhein lysine diabetes treatment group: a month after STZ injection, rhein lysine complex [prepared with distilled water, intragastric infusion for rats according to 90 mg/kg (0.209 mmol/kg) dose] was administered referred to treatment group 1. • 4. Rhein sodium diabetes treatment group: a month after STZ injection, rhein sodium [prepared with distilled water, intragastric infusion for rats, according to 65 mg/kg (0.212 mmol/kg) dose] was administered, referred to treatment group 2. • 5. Rhein lysine diabetes prevention group: one week after STZ injection, rhein lysine conjugates were administered [prepared with distilled water and intragastric infusion for rats, according to 90 mg/kg (0.209 mmol/kg) dose], referred to prevention group 1. • 6. Rhein sodium diabetes prevention group: one week after STZ injection, rhein sodium were administered [prepared with distilled water and intragastric infusion for rats, according to 65 mg/kg (0.212 mmol/kg ) dose], referred to prevention group 2.

[4] = test system: mice; assay: Intestinal propulsion in mice; conditions: intravenous injection
Procedure: Fifty mice, male, weighting from 18 to 22 g, were randomly divided into five groups, namely, model control group, domperidone group, rhein sodium group, rhein glucosamine large dose group and low dose group.
Each group has 10 mice respectively. The mice were fasted, but water was not prohibited, and then administered with medicines by intravenous injection. After that, tests were carried on immediately according to the methods in the literature[Xu Shuyun, Methodology in Pharmacological Experiment (the 3rd version): 1313]. The intestinal propulsive rates were calculated, and t test was used for the intergroup comparison.

[5] = test system: rabbits' ear marginal veins; assay: Safety of hydro-acupuncture injection: irritation of rabbits' ear marginal vein; conditions: slowly into the vein every two days, three times
Text: In rabbits' ear marginal vein aseptic operation, rhein sodium salt, rhein arginine conjugates and 0.9% sodium chloride injection liquid were slowly filled into the veins respectively every two days for three consecutive times.

[6] = test system: mice; assay: Capillary permeability of mice
Procedure: Each group has 12 mice, administration: 0.20 ml/10 g. Mice in the model control group were administrated with isovolumic physiologic saline.

[7] = test system: rats; assay: Formation of cotton ball granuloma in rats (Example 59 Test 2); conditions: ig, large dose and low dose groups, p<0.01
Procedure: Rats were randomly divided into five groups (model control group, indomethacin group, rhein glucosamine large dose group and low dose group and rhein sodium group). Each group included 10 rats, and built models according to the method in the literature [Xu Shuyun, Methodology in Pharmacological Experiment (the 3rd version): 918]. The rats were administered by medicines from the day when starting the operation. […] The rats were killed in two weeks, and tests were performed according to the methods in the literature, the net weight of granulation was calculated, and t test was used for the intergroup comparison.

[8] = test system: rats; assay: Intestinal adhesion in rats; conditions: for Rating of adhesion degree 0: number of 12 rats with completely no adhesion; for Rating of adhesion degree 0 / Rating of adhesion degree III / Rating of adhesion degree I / Rating of adhesion degree IV / Rating of adhesion degree II: 7th day; for Rating of adhesion degree III: number of 12 rats with more than two adhering zones; for Rating of adhesion degree I: number of 12 rats with one adhering zone; for Rating of adhesion degree IV: number of 12 rats with organs adhering to abdominal wall directly; for Rating of adhesion degree II: number of 12 rats with two adhering zones
Procedure: Rats were fasted for 12 h and models were built according to the methods in the literature [Xu Shuyun, Methodology in Pharmacological Experiment (the 3rd version): 1335]. The rats were randomly divided into five groups, namely, model control group, dexamethasone group, rhein sodium group, rhein glucosamine large dose group and low dose group. Each group included 12 rats. […] The rats of the model group were administered with the same volume of NS, while the rats of the positive control group were administered with dexamethasone, administered once every two days, dose: 10 mg/kg. The administration volume was the same as the treatment group. The rats were killed on the 7th day and carried on laparotomy. Adhesion degree was classified and scored respectively. The classification and score of the observed index-adhesion degree can refer to the five-grade classification method prepared by Nair, and determine the classification standard, see Schedule 13. Intestinal adhesion classification adopts Ridit analysis. The test results are as follows (Table 14): […]

[9] = test system: mice; assay: Xylene-induced swelling of auricle in mice; conditions: ig 200 mg/kg, 3 days
Procedure: Fifty male Kunming mice were selected, weighing 18-22 g each, and randomly divided into five groups, namely, model control group, aspirin group, rhein sodium group, rhein glucosamine large dose group and low dose groups. Each group had 10 mice respectively. The mice were administered with medicines by intragastric administration every day, for 0.2 ml/10 g body weight. The mice of the model control group were administered with equal volume of physiological saline, once every day, continuously administration for 3 days. After 60 minutes of the final administration, carried on test according to the method in the literature [Xu Shuyun, Methodology in Pharmacological Experiment (the 3rd version): 911]. The sweeling degree of auricle was calculated and statistical analysis was conducted.

[10] = test system: mice; assay: Acetic acid-induced writhing response in mice; conditions: ig 200 mg/kg, 12 days
Procedure: Fifty Kunming mice, half male and half female, weighing 18-22 g each, were selected and randomly divided into five groups, namely, model control group, aspirin group, rhein sodium group, rhein glucosamine large dose group and small dose group, 10 mice for each group. The mice were administered with medicine by intragastric administration every day, 0.2 ml/10 g body weight, once every day, and administered for 12 days in succession. After the final administration of medicines, 30 minutes later, test was carried on according to the methods in the literature [Xu Shuyun, Methodology in Pharmacological Experiment (the 1st version): 882]. The inhibiting rate for writhing response was calculated.

[11] = test system: mice; assay: Immune function in mice (clearance index, phagocytic index); conditions: ig 20 mg/kg, 3 days
Procedure: Fifty Kunming mice, half male and half female, weighing 18-22 g each were selected and randomly divided into five groups, namely, model control group, cyclophosphamide group, rhein sodium group, rhein glucosamine large dose group and small dose group, 10 mice for each group. The mice were administered with medicines by intragastric administration, 0.2 ml/10 g body weight, once every day and administered for 3 days in succession. After the mice were administered with medicines, 30 minutes later, test was carried on according to the method in the literature [Xu Shuyun, Methodology in Pharmacological Experiment (the 3rd version): 934]. The […] and corrected phagocytic index α were calculated, and t-test was conducted for statistical analysis.

[12] = baseline of high-dose group, ig 180 mg/kg once a day
[13] = baseline of low-dose group, ig 90 mg/kg once a day
[14] = prevention group and treatment group, six months after administration

## NCCCCC(N)C(=O)O.O=C(O)c1cc(O)c2c(c1)C(=O)c1cccc(O)c1C2=O [Rhein lysine conjugate, Rhein Lysine Conjugate]
[1]; 9 weeks after administration
  weight and blood sugar compared with the non-treatment group: extremely significant difference
[1]; [12]
  Blood glucose prior to administration: 29.2 ± 3.6 mmol/L
  Body weight prior to administration: 29.2 ± 1.6 g
[1]; [13]
  Blood glucose prior to administration: 28.7 ± 5.3 mmol/L
  Body weight prior to administration: 28.8 ± 1.6 g
[1]; ig 90 mg/kg once a day
  Blood glucose 6 w after administration: 31.4 ± 4.9 mmol/L
  Blood glucose 9 w after administration: 33.7 ± 5.6 mmol/L
  Blood glucose 12 w after administration: 30.4 ± 4.2 mmol/L
  Body weight 6 w after administration: 35.7 ± 1.7 g
  Body weight 9 w after administration: 39.3 ± 1.2 g
  Body weight 12 w after administration: 41.3 ± 1.6 g
[1]; ig 180 mg/kg once a day
  Blood glucose 6 w after administration: 30.9 ± 4.2 mmol/L
  Blood glucose 9 w after administration: 30.2 ± 5.3 mmol/L
  Blood glucose 12 w after administration: 28.1 ± 5.4 mmol/L
  Body weight 6 w after administration: 34.9 ± 1.6 g
  Body weight 9 w after administration: 38.2 ± 1.3 g
  Body weight 12 w after administration: 40.1 ± 1.4 g
[2]; Group C, after three weeks ig 90 mg/kg once daily
  The body weight increased 7 weeks after high-sugar high-fat diet: 16.8 ± 4.8 g
[2]; Group C, before start of ig 90 mg/kg
  The body weight increased 4 weeks after high-sugar high-fat diet: 15.3 ± 3.8 g
[2]; Group D, after three weeks ig 45 mg/kg once daily
  The body weight increased 7 weeks after high-sugar high-fat diet: 17.7 ± 4.6 g
[2]; Group D, before start of ig 45 mg/kg
  The body weight increased 4 weeks after high-sugar high-fat diet: 16.1 ± 4.2 g
[3]; [14]
  kidney weight and kidney weight index compared with the model group: significantly lower
  serum cholesterol and triglyceride compared with the model group: significantly lower
  urine protein content compared with the model group: significantly lower
[3]; prevention group, six months after administration
  blood sugar level compared with the model group: significantly lower
[3]; preventive administration from one week after STZ
  Urine protein: 10.23 ± 3.34 mg/24 h
[3]; preventive administration
  Kidney weight index (double kidney weight/body weight × 10^4): 5.26 ± 0.74
  Serum total cholesterol: 2.78 ± 0.21 mM
  Serum triacylglycerol: 1.56 ± 0.32
  Steady blood sugar level: 6.2 ± 0.4 mmol/L
  Steady insulin level: 71.6 ± 3.5 uU/ml
  Weight: 248 ± 13 g
  blood sugar: 14.98 ± 5.9 mmol/L
[3]; treatment from a month after STZ
  Urine protein: 15.12 ± 5.68 mg/24 h
[3]; treatment group, six months after administration
  blood sugar level compared with the model group: no significant difference
[3]; treatment
  Kidney weight index (double kidney weight/body weight × 10^4): 6.7 ± 0.78
  Serum total cholesterol: 3.56 ± 0.71 mM
  Serum triacylglycerol: 1.63 ± 0.39
  Steady blood sugar level: 5.6 ± 0.9 mmol/L
  Steady insulin level: 80 ± 3.5 uU/ml
  Weight: 228 ± 15 g
  blood sugar: 17.4 ± 5.6 mmol/L

## O=c1[nH]c2ccccc2n1CCCN1CCC(n2c(=O)[nH]c3cc(Cl)ccc32)CC1 [domperidone]
[4]; dosage 9 mg/kg
  Propulsive rate: 55.42 ± 9.6 %

## Rhein Arginine Conjugate
[5]
  biopsy of rabbits' ear marginal vein: normal without endothelial injuries, thrombosis and other pharmacological change
[5]; vs 0.9% sodium chloride
  irritation on rabbits' ear marginal veins: no irritation
[6]; dosage 12 mg/kg
  absorbance value: 0.476 ± 0.096
[6]; dosage 24 mg/kg
  absorbance value: 0.455 ± 0.105
[7]
  inhibition of the formation of cotton ball granuloma compared with the model group: significant effect on the inhibition
[4]; dosage 12 mg/kg
  Propulsive rate: 53.81 ± 8.9 %
[4]; dosage 24 mg/kg
  Propulsive rate: 66.47 ± 9.7 %
[8]; large dose and low dose groups, p<0.05
  abdominal adhesion ratings compared with the control group: statistical significances
[8]; 6 mg/kg once a day
  Rating of adhesion degree 0: 1
  Rating of adhesion degree III: 3
  Rating of adhesion degree I: 4
  Rating of adhesion degree IV: 1
  Rating of adhesion degree II: 3
[8]; 12 mg/kg once a day
  Rating of adhesion degree 0: 3
  Rating of adhesion degree III: 2
  Rating of adhesion degree I: 5
  Rating of adhesion degree IV: 0
  Rating of adhesion degree II: 2

## CC(=O)Oc1ccccc1C(=O)O [aspirin]
[9]
  inhibition rate: 48.9%
  swelling degree of auricle: 9.1 ± 1.8 mg
[10]
  Inhibiting rate: 65.6%
  Times of writhing: 11.1 ± 6.3 per/20 min

## O=P1(N(CCCl)CCCl)NCCCO1 (stereo not shown) [cyclophosphamide]
[11]
  Clearance index (k): 0.0192 ± 0.0102
  Phagocytic index (α): 4.0208 ± 0.6698
